Test results from US4698330A, “Somnogenic compositions and method of use” (President & Fellows of Harvard College, priority 1983, dated 1987).
Where “and” joins values, the source holds several entries; their conditions need not be identical. Equal values may be shown once.

What was measured:
[1] = test system: rabbits; assay: Intraventricular infusion in rabbits, EEG slow-wave sleep (SWS); settings: for % SWS, 6 hr post infusion, Expt / % SWS Expt.: hr 2-6 after infusion; for % SWS, 6 hr post infusion, Expt: mean ± SEM or range
Experimental: Calibrated glass bead thermistors (Fenwall; 1.2-mm outside diameter, 50 omega/°C.) were implanted through burr holes in frontal bone: the thermistor leads were buried in a mound of dental cement that also insulated the screw electrodes and supported a 9-pin miniature electrical connector. In some experiments, the rectal temperatures were measured at intervals by using a calibrated thermistor probe; temperatures estimated from the implanted brain thermistors were generally within 0.3° C. of simultaneously recorded rectal temperature.
New Zealand rabbits (male, 3-5 kg) or domestic cats were adapted to the infusion cages in a temperature-controlled room (21°-2° C.) on a 12:12 light/dark cycle. Intraventricular infusions or systemic injections were carried out between 0800 and 1000 hr and were followed by 6 or more hr of recording without disturbing the animals.
(§3) EEG, electro-oculogram, and bodily movements were recorded on Grass polygraphs. The amplitude of EEG slow waves was recorded as the rms-rectified output from a 0.5- to 4-Hz bandpass filter (Bunco Electronics, Sharon, (T); the rms component was integrated and the integral was printed on tape every 2 min, thus providing an objective measure of the product of amplitude and duration of EEG slow waves. Each record was also analyzed visually for duration of SWS in rabbits and for both SWS and REM sleep in cats. The infusion and recording systems and examples of analysis of records are described in 1, 12, 15.

[2] = test system: rabbits; assay: Intravenous injection in rabbits, SWS and side effects
Experimental: New Zealand rabbits (male, 3-5 kg) or domestic cats were adapted to the infusion cages in a temperature-controlled room (21°-2° C.) on a 12:12 light/dark cycle. Intraventricular infusions or systemic injections were carried out between 0800 and 1000 hr and were followed by 6 or more hr of recording without disturbing the animals. […] Indomethacin for intravenous injection was dissolved in a small amount of EtOH and diluted with 150 mM NaHCO3 to a concentration of 5 mg/ml. Acetaminophen (Sigma) was dissolved in sterile pyrogen-free saline.
as §3
Each value is mean ±SEM of 11 assays in eight rabbits.

[3] = test system: rabbits; assay: Intraperitoneal injection / stomach tube administration in rabbits, sleep response; assay type: in vivo, rabbit; settings: two rabbits, intraperitoneal injection / stomach tube (5 mg/kg)
Experimental: In two rabbits, sleep responses were recorded after intraperitoneal injection of AcMur-ala-igln by stomach tube (5 mg/kg).

[4] = test system: rabbits; assay: Antipyretic (acetaminophen, indomethacin, aspirin) with AcMur-ala-igln in rabbits, SWS and temperature; assay type: in vivo; settings: for hourly % SWS (mean ±SEM): FIG. 5; for suppression of the pyrogenic (febrile) effects of AcMur-ala-igln by the antipyretic: AcMur-ala-igln delivered intravenously in rabbits
Experimental: (§1) Acetaminophen (Sigma) was dissolved in sterile pyrogen-free saline.
For this reason, the less toxic acetaminophen was used to suppress the pyrogenic effects of AcMur-ala-igln.
In FIG. 5, the symbols mean the following: , AAP alone; , AAP followed by 120 μg of AcMur-ala-igln intravanously at time zero. Each value is mean ±SEM of six assays in six rabbits. In A, the average of the individual increases (ΔT values) in rectal temperature induced by AcMur-ala-igln together with AAP is compared with that induced by AAP alone in each of six rabbits.

[5] = test system: rabbits; assay: Brain/body temperature (pyrogenic response) after intraventricular infusion in rabbits; assay type: in vivo, rabbit; settings: for ΔTmax, maximum increase in temperature: intraventricular, brain temperature, single rabbits, listed as AcMur--Ala--iGln
Experimental: as §1

[6] = test system: squirrel monkey; settings: cited abstract (reference 2); cited from earlier work
[7] = test system: cats; assay: Intraventricular infusion in cats, SWS, REM sleep and brain temperature; assay type: in vivo, cat; settings: intraventricular 200-500 pmol, four cats
Experimental: as §1
Each of four cats was infused intraventricularly one or more times with AcMur-ala-igln or AcMur-ala-igln-lys (200-500 pmol). The responses were more complex than those in rabbits. […] Only after the febrile response had reached its peak did the cats start to sleep for abnormally long periods in deep stage II SWS alternating with periods of REM sleep. The SWS and temperature responses of one cat to 250 pmol of AcMur-ala-igln-lys delivered intraventricularly during 15 min prior to start of recording is shown in FIG. 3. […] A similar delay in the onset of excess SWS was noted by Garcia-Arraras (12) after infusion of natural sleep factor in cats.
Excess SWS induced by AcMur-ala-igln-lys lasted for 3-8 hr after infusion. (A) - - - , Control=37.7 plus or minus 0.2° C. (B) - - - , Control=27 plus or minus 5%. Similar responses were observed following one or more infusions of AcMur-ala-igln or AcMur-ala-igln-lys in each of four cats.

[8] = test system: rabbits; assay: Toxic reactions to indomethacin alone in rabbits; assay type: in vivo, rabbit; settings: doses as low as 1 mg/kg
Experimental: (§2) The time course of the pyrogenic response to AcMur-ala-igln was sometimes quite different from that of the somnogenic response and, in some animals, the natural muramyl peptide isolated from urine induced substantial excess SWS without significant alteration of temperature. […] In preliminary experiments, indomethacin was used as an antipyretic because Parant et al. (7) had shown that this drug (in doses of 40 mg/kg) was effective in blocking the pyrogenic response to intravanously administered AcMur-ala-igln. […] For this reason, the less toxic acetaminophen was used to suppress the pyrogenic effects of AcMur-ala-igln. The results for six rabbits injected intravanously with AcMur-ala-igln at 120 μg/kg 30 min after intravanous injection of acetaminophen at 10 mg/kg are summarized in FIG. 5. It is clear that, under these conditions a substantial somnogenic effect was obtained for 3 to 4 hr with only a weak associated febrile response. In some animals, there was no significant increase in temperature during the sleep response.

[9] = test system: cats; assay: Toxic reactions to indomethacin alone in cats; assay type: in vivo, cat; settings: doses as low as 1 mg/kg
Experimental: as §2

[10] = intraventricular, dose 0.2 nmol
[11] = intraventricular, dose 0.5 nmol
[12] = intraventricular, dose 2.0 nmol
[13] = intraventricular, dose 1.0 nmol
[14] = much smaller doses delivered intraventricularly

CC(=O)N[C@H]1C(O)O[C@H](CO)[C@@H](O)[C@@H]1O[C@H](C)C(=O)N(C)[C@@H](C)C(=O)N[C@H](CCC(=O)O)C(N)=O (stereo partly drawn) [NAc--Mur--(N--Me)--L-ala-D-igln]
% SWS, 6 hr post infusion, Expt [1, 10]: 32-47%

CCCCOC(=O)[C@@H](CCC(N)=O)NC(=O)[C@H](C)NC(=O)[C@@H](C)O[C@H]1[C@H](O)[C@@H](CO)OC(O)[C@@H]1NC(C)=O (stereo partly drawn) [NAc--Mur--L-ala-D-gln-n-Bu ester]
% SWS, 6 hr post infusion, Expt ([1]; intraventricular, dose 0.25 nmol): 41-47%

CC(=O)N[C@H]1C(O)O[C@H](CO)[C@@H](O)[C@@H]1O[C@H](C)C(=O)N[C@@H](C)C(=O)N[C@H](CCC(=O)N[C@@H](CCC[C@@H](N)C(=O)O)C(=O)N[C@H](C)C(=O)N[C@H](C)C(=O)O)C(=O)O (stereo partly drawn) [NAc-Mur-L-ala-gamma-D-glu-m-DAP-D-ala-D-ala]
% SWS, 6 hr post infusion, Expt ([1]; intraventricular, dose 0.15 nmol): 46 ± 3% | % SWS, 6 hr post infusion, Expt [1, 10]: 65 ± 5%

COC(=O)[C@@H](CCC(N)=O)NC(=O)[C@H](C)NC(=O)[C@@H](C)O[C@H]1[C@H](O)[C@@H](CO)OC(O)[C@@H]1NC(C)=O (stereo partly drawn) [NAc--Mur--L-ala-D-gln-alpha OMe]
% SWS, 6 hr post infusion, Expt [1, 11]: 31-45%

CC(=O)NC1C(OC2C(CO)OC(O)C(NC(C)=O)C2OC(C)C(=O)NC(C)C(=O)NC(CCC(=O)O)C(N)=O)OC(CO)C(O)C1O (centres unmarked) [Nac--glc-1,4-MDP, NAc-glucosaminyl-(1,4)-MDP]
% SWS, 6 hr post infusion, Expt [1, 10]: 60 ± 5%

COC(=O)[C@@H](CCC(=O)O)NC(=O)[C@H](C)NC(=O)[C@@H](C)O[C@H]1[C@H](O)[C@@H](CO)OC(O)[C@@H]1NC(C)=O (stereo partly drawn) [NAc--Mur--L-ala-D-glu-alpha-OMe, NAc-Mur-L-ala-D-glu-alpha-OMe]
% SWS, 6 hr post infusion, Expt [1, 10]: 47-61% | % SWS, 6 hr post infusion, Expt [1, 12]: 72 ± 4%

CC(=O)N[C@@H]1[C@@H](O[C@H](C)C(=O)N[C@@H](C)C(=O)N[C@H](CCC(=O)O)C(N)=O)[C@H](O)[C@@H](CO)O[C@H]1O [MDP, 2-(2-acetamido-2-desoxy-3-O-D-glucopyranosyl)-D-propionyl-L-alanyl-D-isoglutamine]
time of return of sleep response to near control values ([2]; intravenous 150-200 nmol/kg): ≤ 5 h | time of maximum sleep response after injection ([2]; intravenous 150-200 nmol/kg (75-100 μg), FIG. 4): about 3 hr | side effects noted in some animals ([2]; intravenous 150-200 nmol/kg, after 3 to 4 hr): abnormal lacrimation, nasal secretion, and inflammation | time after which deleterious side effects occurred ([2]; intravenous, doses sufficient to induce excess SWS and pyrexia): about 3 hr | increase of SWS for 6 hr [3]: ca. 50% | number of episodes of SWS having durations of 1-8 min ([1]; hr 2 to hr 6 after administration, eight rabbits, FIG. 2): no significant effect | number of episodes of SWS having durations greater than 8 min ([1]; hr 2 to hr 6 after administration, eight rabbits, FIG. 2, P<0.0125): increased | amount required to induce a comparable increase of SWS for 6 hr, relative to the natural product (factor S) ([1]; intraventricular): roughly 10 times | hourly percentage of SWS ([1]; intraventricular 75-150 pmol, for 6 hr or more after the infusion, control about 40%): about 60% | persistence of the effects ([1]; intraventricular infusion): 6 to 12 h | % SWS, 6 hr post infusion, Expt ([1]; intraventricular, dose 0.01 nmol): 39 ± 4% | % SWS, 6 hr post infusion, Expt ([1]; intraventricular, dose 0.05 nmol): 49 ± 3% | % SWS Expt. ([1]; intraventricular, dose 75 pmol, single rabbits, listed as AcMur--Ala--iGln): 55% and 43% | % SWS, 6 hr post infusion, Expt ([1]; intraventricular, dose 0.1 nmol): 62 ± 7% | % SWS Expt. ([1]; intraventricular, dose 120 pmol, single rabbits, listed as AcMur--Ala--iGln): 94% and 69% | Amplitude of slow wave, Expt. ([1]; intraventricular, dose 120 pmol, rms-rectified voltage of 0.5 to 4 Hz band, single rabbits, listed as AcMur--Ala--iGln): 56 μV and 42 μV | % SWS Expt. ([1]; intraventricular, dose 125 pmol, single rabbits, listed as AcMur--Ala--iGln): 38% and 60% | % SWS, 6 hr post infusion, Expt [1, 13]: 76 ± 7% | % SWS, 6 hr post infusion, Expt ([1]; intraventricular, dose 10.0 nmol): 65 ± 6% | deleterious effects [1, 14]: did not cause deleterious effects | duration of excess SWS [1, 14]: 6 to 10 h | hourly % SWS (mean ±SEM) ([4]; AAP 10 mg/kg i.v. followed 30 min later by AcMur-ala-igln 120 μg i.v., six rabbits): 67±3% | time after which toxic reactions developed ([4]; AcMur-ala-igln 120 μg/kg i.v. after acetaminophen 10 mg/kg i.v.): about 4 hr | average ΔT, rectal temperature ([4]; AcMur-ala-igln i.v. with AAP, six rabbits): less than 0.7 °C | average ΔT ([5]; AcMur-ala-igln alone (Table 1)): 1.9±0.2 °C | ΔTmax, maximum increase in temperature ([5]; dose 75 pmol): 2.8 °C and 1.6 °C | ΔTmax, maximum increase in temperature ([5]; dose 125 pmol): 1.1 °C and 1.5 °C | effect on non-REM and REM sleep [6]: induces non-REM but not REM sleep | REM sleep during 2-4 hr after the infusion [7]: completely suppressed | SWS after the initial period of sleep suppression [7]: abnormally long period of deep SWS

CC(=O)N[C@H]1C(O)O[C@H](CO)[C@@H](O)[C@@H]1O[C@H](C)C(=O)N[C@@H](C)C(=O)N[C@H](CCC(N)=O)C(=O)O (stereo partly drawn) [NAc--Mur--L-ala-D-gln, NAc-Mur-L-ala-D-gln]
% SWS, 6 hr post infusion, Expt [1, 12]: 45 ± 1% | % SWS, 6 hr post infusion, Expt ([1]; intraventricular, dose 20.0 nmol): 58-66%

CC(=O)Nc1ccc(O)cc1 [acetaminophen]
effects on sleep or rectal temperature ([4]; AAP alone): no significant effects | hourly % SWS (mean ±SEM) ([4]; AAP alone, 10 mg/kg intravenous, six rabbits): 41±3% | suppression of the pyrogenic (febrile) effects of AcMur-ala-igln by the antipyretic [4]: completely or partially suppressed

CC(=O)N[C@H]1C(O)O[C@H](CO)[C@@H](O)[C@@H]1O[C@H](C)C(=O)N[C@@H](C)C(=O)N[C@H](CCC(N)=O)C(N)=O (stereo partly drawn) [NAc--Mur--L-ala-D-glu(NH2)--NH2]
% SWS, 6 hr post infusion, Expt [1, 12]: 43 ± 1%

COC(=O)CC[C@@H](NC(=O)[C@H](C)NC(=O)C(C)O[C@H]1[C@H](O)[C@@H](CO)O[C@H](O)[C@@H]1NC(C)=O)C(=O)OC (stereo partly drawn) [NAc--Mur--L-ala-D-glu(OMe)--OMe, NAc-Mur-L-ala-D-glu(OMe)-OMe]
% SWS, 6 hr post infusion, Expt [1, 12]: 66 ± 4%

CC(=O)Oc1ccccc1C(=O)O [aspirin, acetyl salicylic acid]
suppression of the pyrogenic (febrile) effects of AcMur-ala-igln by the antipyretic [4]: like suppression of the febrile response

CC(=O)N[C@H]1C(O)O[C@H](CO)[C@@H](O)[C@@H]1O[C@H](C)C(=O)O (some centres unmarked) [N-acetylmuramic acid, reference compound]
somnogenic effect ([1]; summary of Table 2, intraventricular, rabbits): no effect

COc1ccc2c(c1)c(CC(=O)O)c(C)n2C(=O)c1ccc(Cl)cc1 [indomethacin]
toxic reactions (diarrhea, lethargy, inhibition of normal sleep) [8]: toxic reactions | blocking of the pyrogenic or somnogenic effects of intraventricularly administered AcMur-ala-igln ([4]; indomethacin: 10 out of 10 trials in six rabbits, acetaminophen: two rabbits): did not block | toxic reactions (diarrhea, lethargy, inhibition of normal sleep) [9]: toxic reactions

CC(=O)N[C@H]1C(O)O[C@H](CO)[C@@H](O)[C@@H]1O[C@H](C)C(=O)N[C@@H](C)C(=O)N[C@H](CCC(=O)O)C(=O)O (stereo partly drawn) [NAc--Mur--L-ala-D-glu, NAc-Mur-L-ala-D-glu]
% SWS, 6 hr post infusion, Expt [1, 10]: 43 ± 3% | % SWS, 6 hr post infusion, Expt [1, 12]: 51 ± 3%

CC(=O)NC1C(O)OC(CO)C(O)C1OC(C)C(=O)NC(C)C(=O)NC(CCC(=O)O)C(N)=O [NAc--Mur--D-ala-D-igln]
% SWS, 6 hr post infusion, Expt [1, 11]: 35 ± 2% | % SWS, 6 hr post infusion, Expt [1, 13]: 35 ± 2%

COC(=O)CC[C@@H](NC(=O)[C@H](C)NC(=O)[C@@H](C)O[C@H]1[C@H](O)[C@@H](CO)OC(O)[C@@H]1NC(C)=O)C(N)=O (stereo partly drawn) [NAc--Mur--L-ala-D-igln-gamma-OMe, NAc-Mur-L-ala-D-igln-gamma-OMe]
% SWS, 6 hr post infusion, Expt [1, 12]: 56 ± 7%

CC(=O)N[C@H]1C(O)O[C@H](CO)[C@@H](O)[C@@H]1O[C@H](C)C(=O)N[C@@H](C)C(=O)N[C@@H](CCC(=O)O)C(N)=O (stereo partly drawn) [NAc--Mur--L-ala-L-igln]
% SWS, 6 hr post infusion, Expt [1, 10]: 38 ± 4%
